Here are results for 6 compounds from article PMC10184128 (Journal of Medicinal Chemistry, 2023).

In assay [1] the target is T1, NOR1 (NR4A3) (Homo sapiens, UniProt Q92570).
T1 sequence (Q92570 394-623 limits assumed): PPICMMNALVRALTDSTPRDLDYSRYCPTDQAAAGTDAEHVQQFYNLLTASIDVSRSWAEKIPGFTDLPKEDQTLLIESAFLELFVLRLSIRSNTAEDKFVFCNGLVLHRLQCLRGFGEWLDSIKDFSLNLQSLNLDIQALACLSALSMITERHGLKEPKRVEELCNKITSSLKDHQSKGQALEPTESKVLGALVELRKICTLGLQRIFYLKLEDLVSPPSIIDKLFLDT
The assay can be described thus: cell-based.

In assay [2] the target is human Nurr1 (Homo sapiens, UniProt P43354). Particulars: for activation of Gal4-Nurr1 (hybrid assay): all compounds tested at 10 μM, n = 3; for EC50(Nurr1): Gal4 hybrid reporter gene assay, mean ± S.E.M., n ≥ 3, inactive = at 10 μM.
human Nurr1, sequence (P43354 360-595 limits assumed): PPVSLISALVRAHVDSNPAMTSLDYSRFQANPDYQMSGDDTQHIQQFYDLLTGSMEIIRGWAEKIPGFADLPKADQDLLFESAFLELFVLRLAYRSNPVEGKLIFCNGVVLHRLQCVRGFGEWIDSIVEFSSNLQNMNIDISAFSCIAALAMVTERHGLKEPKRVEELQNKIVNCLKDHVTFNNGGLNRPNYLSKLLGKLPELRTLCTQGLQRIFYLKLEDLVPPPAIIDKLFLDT
Assay [3] concerns the target full-length human Nurr1 (NBRE) (Homo sapiens, UniProt P43354). As to conditions: all compounds tested at 10 μM, n = 3.

full-length human Nurr1 (NBRE), sequence (P43354 whole entry): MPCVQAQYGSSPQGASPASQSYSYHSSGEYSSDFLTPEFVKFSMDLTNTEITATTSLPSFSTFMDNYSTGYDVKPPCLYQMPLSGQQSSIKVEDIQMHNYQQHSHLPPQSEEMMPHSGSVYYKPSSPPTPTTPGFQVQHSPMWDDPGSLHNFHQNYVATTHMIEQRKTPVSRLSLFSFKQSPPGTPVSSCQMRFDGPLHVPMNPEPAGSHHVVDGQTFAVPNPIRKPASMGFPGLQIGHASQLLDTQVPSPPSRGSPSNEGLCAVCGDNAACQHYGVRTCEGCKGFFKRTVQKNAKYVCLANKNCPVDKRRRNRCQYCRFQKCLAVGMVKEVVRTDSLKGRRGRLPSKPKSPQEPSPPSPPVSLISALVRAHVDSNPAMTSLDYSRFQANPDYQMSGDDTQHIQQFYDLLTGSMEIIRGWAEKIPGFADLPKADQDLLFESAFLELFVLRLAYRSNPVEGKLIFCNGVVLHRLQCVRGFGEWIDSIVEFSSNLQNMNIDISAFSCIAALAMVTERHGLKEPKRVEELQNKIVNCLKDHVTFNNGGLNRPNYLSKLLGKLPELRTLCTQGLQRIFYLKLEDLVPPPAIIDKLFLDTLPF

Compound `C#CCOc1cccc(-c2ccc(NC(=O)C3=C(C(=O)O)CCC3)c(F)c2)c1` [compound 29, 2-[(3-Fluoro-3′-prop-2-yn-1-yloxy[1,1′-biphenyl]-4-yl)carbamoyl]cyclopent-1-ene-1-carboxylic acid] registered an EC50 in assay [1] of 1300 ± 300 nM.
With `COc1cccc(-c2cc(F)c(Nc3ncccc3C(=O)O)c(F)c2)c1` [farudodstat], the “activation of Gal4-Nurr1 (hybrid assay)” value in assay [2] is recorded as “No other tested DHODH inhibitor caused activation”. Further, the “activation of full-length Nurr1 (NBRE)” value in assay [3] is reported as “No other tested DHODH inhibitor caused activation”.
For the compound `[2H]C([2H])([2H])Oc1cccc(-c2ccc(N(C)C(=O)C3=C(C(=O)O)CCC3)c(F)c2)c1` [compound 9], the “EC50(Nurr1)” value in assay [2] is “inactive (10 μM)”.
`O=C(Nc1c(F)c(F)c(-c2ccccc2)c(F)c1F)c1c(=O)[nH]n2ccccc12` [MEDS433]: in assay [2], the “activation of Gal4-Nurr1 (hybrid assay)” value is “No other tested DHODH inhibitor caused activation”. The “activation of full-length Nurr1 (NBRE)” value in assay [3] is given as “No other tested DHODH inhibitor caused activation”.
As to `[2H]C([2H])([2H])Oc1cccc(C23CCC(NC(=O)C4=C(C(=O)O)CCC4)(CC2)CC3)c1` [compound 8], the “EC50(Nurr1)” value in assay [2] was “inactive (10 μM)”.
As to `Cc1ccccc1-c1ccc(-c2cc(C(=O)O)c3c(c2)nnn3C)cc1` [AG-636], the “activation of Gal4-Nurr1 (hybrid assay)” value in assay [2] is “No other tested DHODH inhibitor caused activation”. The “activation of full-length Nurr1 (NBRE)” value in assay [3] is recorded as “No other tested DHODH inhibitor caused activation”.
